Measured values reported in US5618809A, “Indolocarbazoles from saccharothrix aerocolonigenes copiosa subsp. nov SCC 1951 ATCC 53856” (Schering Corporation, priority 1995, dated 1997).

Experiments:
MLCK = target: T1, MLCK (Gallus gallus, UniProt P11799); test: MLCK inhibition (native enzyme from chicken gizzard, calmodulin activated, Kemptamide substrate); assay type: biochemical
T1 construct: Kemptamide as substrate
Source text: (§1) The PKC was partially purified from rat brain and assayed in the presence of its activators: Ca^2+, phosphatidylserine and 1-oleoyl-2-acetylglycerol. Histone III-S was used as phosphate acceptor. The MLCK was native enzyme from chicken gizzard fully activated by calmodulin. Kemptamide was used as phosphate acceptor.

PKC = PKC inhibition (partially purified PKC, Ca2+, phosphatidylserine and 1-oleoyl-2-acetylglycerol, histone III-S substrate); assay type: biochemical, rat
Source text: as §1

SHR and DOC-rats = conditions: cited from earlier work
PKC (from rats' brains) = conditions: cited from earlier work

COC(=O)[C@@]1(O)C[C@H]2O[C@]1(C)n1c3ccccc3c3c4c(c5c6ccccc6n2c5c31)C(=O)NC4 [Example K-252a]
potency at MLCK (in words) (MLCK): nanomolar potencies | potency at PKC (in words) (PKC): nanomolar potencies | lowering of blood pressure (in words) (SHR and DOC-rats): lowers blood pressure in SHR and DOC-rats | PKC inhibitory potency (in words) (PKC (from rats' brains)): inhibitory to PKC (from rats' brains) with good potency, in the nanomolar range

CC12OC(CC1(O)C(=O)O)n1c3ccccc3c3c4c(c5c6ccccc6n2c5c31)CNC4=O (centres unmarked) [Example K252b]
PKC inhibitory potency (in words) (PKC (from rats' brains)): inhibitory to PKC (from rats' brains) with good potency, in the nanomolar range
